Assay results taken from PubChem BioAssay (NCI).
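Following 48 hours of exposure in 96-well plates, responses at five concentrations were used to interpolate endpoints linearly. GI50 is the concentration that inhibits growth by half. TGI denotes the concentration required for complete inhibition of growth.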

Experiments:
Experiment in all cases: NCI-60 cell line screen, 48 h
HCC-2998 colon = test system: HCC-2998 colon
NCI-H522 lung = test system: NCI-H522 lung
SR leukemia = test system: SR leukemia
LOX IMVI melanoma = test system: LOX IMVI melanoma
NCI-H23 lung = test system: NCI-H23 lung
SNB-75 CNS = test system: SNB-75 CNS
RPMI-8226 leukemia = test system: RPMI-8226 leukemia
SNB-19 CNS = test system: SNB-19 CNS
MOLT-4 leukemia = test system: MOLT-4 leukemia
786-0 renal = test system: 786-0 renal
UACC-62 melanoma = test system: UACC-62 melanoma
T-47D breast = test system: T-47D breast
A549 NSCLC = test system: A549 NSCLC
SW-620 colon = test system: SW-620 colon
SK-OV-3 ovarian = test system: SK-OV-3 ovarian
DU-145 prostate = test system: DU-145 prostate
NCI/ADR-RES ovarian = test system: NCI/ADR-RES ovarian
SF-295 CNS = test system: SF-295 CNS
SF-268 CNS = test system: SF-268 CNS
COLO 205 colon = test system: COLO 205 colon
TK-10 renal = test system: TK-10 renal
RXF 393 renal = test system: RXF 393 renal
NCI-H460 lung = test system: NCI-H460 lung
OVCAR-5 ovarian = test system: OVCAR-5 ovarian
A498 renal = test system: A498 renal
HCT-116 colon = test system: HCT-116 colon
HCT-15 colon = test system: HCT-15 colon
KM12 colon = test system: KM12 colon
SF-539 CNS = test system: SF-539 CNS
OVCAR-4 ovarian = test system: OVCAR-4 ovarian
NCI-H226 lung = test system: NCI-H226 lung
UACC-257 melanoma = test system: UACC-257 melanoma
HOP-62 NSCLC = test system: HOP-62 NSCLC
SK-MEL-2 melanoma = test system: SK-MEL-2 melanoma
IGROV1 ovarian = test system: IGROV1 ovarian
CCRF-CEM leukemia = test system: CCRF-CEM leukemia
SK-MEL-28 melanoma = test system: SK-MEL-28 melanoma
MCF7 breast = test system: MCF7 breast
M14 melanoma = test system: M14 melanoma
SN12C renal = test system: SN12C renal
MDA-MB-435 = test system: MDA-MB-435
HOP-92 NSCLC = test system: HOP-92 NSCLC
HT29 colon = test system: HT29 colon
MDA-MB-231 breast = test system: MDA-MB-231 breast
MALME-3M melanoma = test system: MALME-3M melanoma
K-562 leukemia = test system: K-562 leukemia
SK-MEL-5 melanoma = test system: SK-MEL-5 melanoma
CAKI-1 renal = test system: CAKI-1 renal
ACHN renal = test system: ACHN renal
UO-31 renal = test system: UO-31 renal
HS 578T breast = test system: HS 578T breast
PC-3 prostate = test system: PC-3 prostate
U251 CNS = test system: U251 CNS
EKVX NSCLC = test system: EKVX NSCLC
OVCAR-8 ovarian = test system: OVCAR-8 ovarian
HL-60(TB) leukemia = test system: HL-60(TB) leukemia

In the case of `C=CCn1c(SCC(=O)Nc2ccc(C(=O)/C=C/c3cc(OC)c(OC)c(OC)c3)cc2)nnc1-c1c[nH]c2ccccc12`, the GI50 (HCC-2998 colon) is reported as 1.65 µM, the TGI (HCC-2998 colon) is reported as 3.09 µM and the GI50 (NCI-H522 lung) is reported as 2.15 µM. The TGI (NCI-H522 lung) was 4.99 µM, the GI50 (SR leukemia) was 0.522 µM and the TGI (SR leukemia) was > 100 µM. It also gave a GI50 (LOX IMVI melanoma) of 0.904 µM, a TGI (LOX IMVI melanoma) of 2.34 µM and a GI50 (NCI-H23 lung) of 1.85 µM. It also gave a TGI (NCI-H23 lung) of 4.16 µM, a GI50 (SNB-75 CNS) of 3.5 µM and a TGI (SNB-75 CNS) of 17.3 µM. It also gave a GI50 (RPMI-8226 leukemia) of 0.288 µM, a TGI (RPMI-8226 leukemia) of 1.26 µM and a GI50 (SNB-19 CNS) of 3 µM. For the same compound, the TGI (SNB-19 CNS) was 13.3 µM, the GI50 (MOLT-4 leukemia) was 2.7 µM and the TGI (MOLT-4 leukemia) was > 100 µM. For the same compound, the GI50 (786-0 renal) was 1.84 µM, the TGI (786-0 renal) was 3.43 µM and the GI50 (UACC-62 melanoma) was 2.55 µM. For the same compound, the TGI (UACC-62 melanoma) was 10.4 µM, the GI50 (T-47D breast) was 2.42 µM and the TGI (T-47D breast) was > 100 µM. It also gave a GI50 (A549 NSCLC) of 3.04 µM, a TGI (A549 NSCLC) of 12.3 µM and a GI50 (SW-620 colon) of 2.08 µM. It also gave a TGI (SW-620 colon) of 5.85 µM, a GI50 (SK-OV-3 ovarian) of 4.46 µM and a TGI (SK-OV-3 ovarian) of 19.3 µM. For the same compound, the GI50 (DU-145 prostate) was 3.19 µM, the TGI (DU-145 prostate) was 10.8 µM and the GI50 (NCI/ADR-RES ovarian) was > 100 µM. For the same compound, the TGI (NCI/ADR-RES ovarian) was > 100 µM, the GI50 (SF-295 CNS) was 3.14 µM and the TGI (SF-295 CNS) was 11.6 µM. The GI50 (SF-268 CNS) was 3.43 µM, the TGI (SF-268 CNS) was 18.6 µM and the GI50 (COLO 205 colon) was 1.87 µM. For the same compound, the TGI (COLO 205 colon) was 4.07 µM, the GI50 (TK-10 renal) was 5.8 µM and the TGI (TK-10 renal) was 34.3 µM. For the same compound, the GI50 (RXF 393 renal) was 1.53 µM, the TGI (RXF 393 renal) was 3.34 µM and the GI50 (NCI-H460 lung) was 3.1 µM. It also gave a TGI (NCI-H460 lung) of 10.1 µM, a GI50 (OVCAR-5 ovarian) of 2.06 µM and a TGI (OVCAR-5 ovarian) of 4.34 µM. For the same compound, the GI50 (A498 renal) was 1.5 µM, the TGI (A498 renal) was 2.92 µM and the GI50 (HCT-116 colon) was 0.376 µM. The TGI (HCT-116 colon) was 1.53 µM, the GI50 (HCT-15 colon) was 2.08 µM and the TGI (HCT-15 colon) was 11.1 µM. The GI50 (KM12 colon) was 1.48 µM, the TGI (KM12 colon) was 2.98 µM and the GI50 (SF-539 CNS) was 1.81 µM. The TGI (SF-539 CNS) was 3.64 µM, the GI50 (OVCAR-4 ovarian) was 2.79 µM and the TGI (OVCAR-4 ovarian) was 8.91 µM. It also gave a GI50 (NCI-H226 lung) of 2.56 µM, a TGI (NCI-H226 lung) of 56.8 µM and a GI50 (UACC-257 melanoma) of 3.5 µM. It also gave a TGI (UACC-257 melanoma) of 19.8 µM, a GI50 (HOP-62 NSCLC) of 2.06 µM and a TGI (HOP-62 NSCLC) of 5.22 µM. For the same compound, the GI50 (SK-MEL-2 melanoma) was 2.25 µM, the TGI (SK-MEL-2 melanoma) was 6.38 µM and the GI50 (IGROV1 ovarian) was 1.6 µM. For the same compound, the TGI (IGROV1 ovarian) was 4.06 µM, the GI50 (CCRF-CEM leukemia) was 2.24 µM and the TGI (CCRF-CEM leukemia) was > 100 µM. For the same compound, the GI50 (SK-MEL-28 melanoma) was 2.32 µM, the TGI (SK-MEL-28 melanoma) was 5.61 µM and the GI50 (MCF7 breast) was 0.361 µM. For the same compound, the TGI (MCF7 breast) was 1.86 µM, the GI50 (M14 melanoma) was 2.66 µM and the TGI (M14 melanoma) was 8.39 µM. The GI50 (SN12C renal) was 3.71 µM, the TGI (SN12C renal) was > 100 µM and the GI50 (MDA-MB-435) was 1.82 µM. For the same compound, the TGI (MDA-MB-435) was 4.76 µM, the GI50 (HOP-92 NSCLC) was 4.24 µM and the TGI (HOP-92 NSCLC) was > 100 µM. For the same compound, the GI50 (HT29 colon) was 1.7 µM, the TGI (HT29 colon) was 3.3 µM and the GI50 (MDA-MB-231 breast) was 5.58 µM. The TGI (MDA-MB-231 breast) was > 100 µM, the GI50 (MALME-3M melanoma) was 3.2 µM and the TGI (MALME-3M melanoma) was 24.9 µM. The GI50 (K-562 leukemia) was 0.991 µM, the TGI (K-562 leukemia) was > 100 µM and the GI50 (SK-MEL-5 melanoma) was 3.52 µM. For the same compound, the TGI (SK-MEL-5 melanoma) was 13.5 µM, the GI50 (CAKI-1 renal) was 3.35 µM and the TGI (CAKI-1 renal) was > 100 µM. It also gave a GI50 (ACHN renal) of 1.97 µM, a TGI (ACHN renal) of 4.33 µM and a GI50 (UO-31 renal) of 1.63 µM. For the same compound, the TGI (UO-31 renal) was 4.77 µM, the GI50 (HS 578T breast) was 4.35 µM and the TGI (HS 578T breast) was > 100 µM. For the same compound, the GI50 (PC-3 prostate) was 3.09 µM, the TGI (PC-3 prostate) was > 100 µM and the GI50 (U251 CNS) was 1.61 µM. The TGI (U251 CNS) was 3.64 µM, the GI50 (EKVX NSCLC) was 3.69 µM and the TGI (EKVX NSCLC) was > 100 µM. The GI50 (OVCAR-8 ovarian) was 3.44 µM, the TGI (OVCAR-8 ovarian) was > 100 µM and the GI50 (HL-60(TB) leukemia) was 2.18 µM. The TGI (HL-60(TB) leukemia) was 8.04 µM.
